The values below come from US20250302903A1, “COMPOSITION FOR PREVENTION AND TREATMENT OF MUSCLE DISEASE, CONTAINING MAGNOLIA OFFICINALIS EXTRACT AS ACTIVE INGREDIENT” (TWINPIGBIOLAB INC., priority 2022, published 2025).

Assay [1] has as its system mouse colon cancer cell line CT26. Put plainly: Anti-tumor activity of cisplatin in the CT26 colon cancer-bearing mouse model. The class given is in vivo. Conditions: cisplatin alone; CT26 s.c. 3×10^5 per mouse. How it is done: To confirm whether administration of the Magnolia officinalis extract interfered with the anti-tumor activity of cisplatin, a mouse colon cancer cell line CT26 (Korean Cell Line Bank, 80009; Seoul, Korea) was injected subcutaneously at 3×10^5 per mouse to fabricate a colon cancer-bearing mouse model, and then treated with cisplatin or cisplatin+Magnolia officinalis extract (200 mg/kg), and the size (volume) and weight of tumor were measured every 3 days.

Assay [2] relates to cisplatin-induced sarcopenia mouse model. Description: Leg weight and tibialis anterior (TA) muscle mass on day 42, cisplatin-induced skeletal muscle wasting. The class given is in vivo, mice (C57BL/6). To be noted: vs cisplatin group. How it is done:
In order to confirm an effect of a Magnolia officinalis extract on cisplatin-induced skeletal muscle wasting, the leg weight and tibialis anterior (TA) muscle mass of each group were measured on day 42 of the experiment.

The subject of assay [3] is cells expressing both CD68 and IGF-1. Put plainly: Immunohistochemistry of CD68 and IGF-1 in TA muscle sections. It is filed as in vivo, mice (C57BL/6). To be noted: per image area. The method, then: It was confirmed whether […], which shifted the polarization of a macrophage phenotype from M2a to M2c (macrophages involved in extracellular matrix remodeling and muscle healing), and the number of macrophages were affected in skeletal muscle by administration of a Magnolia officinalis extract. Specifically, the TA muscle tissue sections of Example 4-3 were incubated overnight with a primary antibody, rat anti-mouse CD68 antibody (1:250; MCA1957GA; Bio-Rad, Contra Costa County, CA, USA) and rabbit anti-mouse IGF-1 antibody (1:500; 40657; Abcam, Cambridge, UK), and then incubated for 30 minutes with a secondary antibody, Alexa Fluor 488-conjugated goat anti-rat immunoglobulin IgG (A11006; Invitrogen, Carls-bad, CA, USA) and Alexa Fluor 594-conjugated goat anti-rabbit IgG (A32740; Invitrogen, Carlsbad, CA, USA). Thereafter, the sections were mounted using mounting media containing 4′,6-diamidino-2-phenylindole (DAPI) (H-1200, Vector, Torrance, CA, USA), and then imaged under a confocalator microscope (FV10C-PSU; Olympus Corporation, Tokyo, Japan). In the captured images, the numbers of IGF-I (red), CD68 (macrophage) (green), and DAPI (blue) positive cells per image area were measured in at least five random fields.

The test system of assay [4] is cisplatin-induced sarcopenia mouse model. Put plainly: Grip strength (forelimb and all limbs) by digital force gauge. Conditions: M.C 100 and 200 mg/kg; magnolol 10 mg/kg i.p. The class given is in vivo, mice (C57BL/6). The method, then: To determine the effect of the Magnolia officinalis extract on cisplatin-induced grip strength reduction, muscle strength of all limbs and muscle strength of forelimb were measured using a digital force gauge (DS2-5N; IMADA Inc., Northbrook, IL, USA). The muscle strength was measured by pulling the mouse's tail downward 5times and recording the peak tension when the mouse released its foot, and repeated 3 times at 10-minute intervals, and the average of 5 values was used for calculation.

The test system is the same in assay [5].
Description: Specifically, mice (C57BL/6, 7 to 8 weeks old) (Jackson Laboratories, Raon Bio, Gyeonggi) were randomly caged and raised in a regulated environment with free access to food and water with a 12-hour light/dark cycle, and then on days 1 to 5 and days 26 to 30, cisplatin (Sigma-Aldrich, P4394; St. Louis, MO, USA) (2.5 mg/kg) dissolved at 1 mg/mL in physiological saline was injected intraperitoneally once daily (sarcopenia mouse model), M.C (50, 100 and 200 mg/kg) were administered orally every 3 days (total of 12 times).

With `N.N.[Cl][Pt][Cl]` [cisplatin], the “tumor growth (size and weight)” value in assay [1] is “significantly reduced tumor growth”.

With `C=CCc1ccc(O)c(-c2cc(CC=C)ccc2O)c1` [magnolol], in assay [2], the “TA muscle mass reduction induced by cisplatin” value is on record as “significantly alleviated” and the “leg weight reduction induced by cisplatin” value is given as “significantly alleviated”. Moreover, the “number of cells expressing both CD68 and IGF-1” value in assay [3] is reported as “increased”. Also, the “pulling force power (grip strength) compared to the cisplatin administered group” value in assay [4] was “significantly increased”. Further, the “cisplatin-induced rapid weight loss (body weight, A of FIG. 2)” value in assay [5] (M.C 50, 100 and 200 mg/kg orally every 3 days (12 times), magnolol 10 mg/kg i.p. every 3 days, vs CIS+PBS) is recorded as “significantly alleviated”. Further, the “changes in weight on the last and first days (B of FIG. 2)” value in assay [5] (M.C orally or magnolol 10 mg/kg i.p. vs cisplatin group) is given as “significant reduction in weight loss”.
